# Patent US12473304B2, “Heterocyclic PAD4 inhibitors” (BRISTOL-MYERS SQUIBB COMPANY, priority 2020, dated 2025)
# Target: human PAD4 (hPAD4) (Homo sapiens (Human), UniProt Q9UM07)
# Experiment: RFMS Human PAD4 Functional Assay 1
# Assay type: biochemical
# Settings: RFMS assay 1; 5 nM hPAD4, 250 μM BAEE substrate, 50 μM calcium, 37° C.
# Method in brief: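 Recombinant hPAD4 (5 nM) was preincubated with compound (top 50 μM, 0.5% DMSO) for 30 min at 37 °C, then reacted with 250 μM BAEE for 90 min at 37 °C in pH 7.5 HEPES buffer with 50 μM calcium and 5 μM TPEN. Product was derivatized with phenyl glyoxal and quantified by RapidFire MS.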
# Chain of human PAD4 (hPAD4) (Q9UM07 whole entry): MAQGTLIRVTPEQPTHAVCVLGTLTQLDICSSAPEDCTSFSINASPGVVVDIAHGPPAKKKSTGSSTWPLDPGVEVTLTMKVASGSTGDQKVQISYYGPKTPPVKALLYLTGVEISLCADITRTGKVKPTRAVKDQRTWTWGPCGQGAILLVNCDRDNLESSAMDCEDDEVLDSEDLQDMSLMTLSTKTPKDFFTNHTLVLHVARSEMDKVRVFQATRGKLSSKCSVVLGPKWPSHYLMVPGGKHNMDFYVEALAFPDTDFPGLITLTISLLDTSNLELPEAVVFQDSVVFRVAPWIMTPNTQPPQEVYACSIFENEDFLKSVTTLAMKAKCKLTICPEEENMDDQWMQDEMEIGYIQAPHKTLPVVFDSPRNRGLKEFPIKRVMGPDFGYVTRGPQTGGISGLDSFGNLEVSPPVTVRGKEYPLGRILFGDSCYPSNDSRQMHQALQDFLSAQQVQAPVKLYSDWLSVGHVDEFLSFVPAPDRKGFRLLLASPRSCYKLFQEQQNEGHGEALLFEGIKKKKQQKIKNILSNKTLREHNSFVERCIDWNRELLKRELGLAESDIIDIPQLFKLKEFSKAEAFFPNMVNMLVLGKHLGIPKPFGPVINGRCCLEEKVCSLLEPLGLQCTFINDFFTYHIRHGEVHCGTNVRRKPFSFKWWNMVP
row,IC50 [µM],Compound
1,0.093,"Cc1c(-c2cc3ccc(N4CCNCC4)cc3n2CC2CC2)oc2cc(C(=O)N3CC4CCC3[C@@H]4N)ccc12 (stereo partly drawn) [Example 192, ((7R)-7-Amino-2-azabicyclo[2.2.1]heptan-2-yl)(2-(1-(cyclopropylmethyl)-6-(piperazin-1-yl)-1H-indol-2-yl)-3-methylbenzofuran-6-yl)methanone]"
2,0.334,"Cc1c(-c2cc3ccc(N4CCNCC4=O)cc3n2CC2CC2)oc2cc(C(=O)N3CC4CCC3[C@@H]4N)ccc12 (stereo partly drawn) [Example 193, 1-(2-(6-((7R)-7-Amino-2-azabicyclo[2.2.1]heptane-2-carbonyl)-3-methylbenzofuran-2-yl)-1-(cyclopropylmethyl)-1H-indol-6-yl)piperazin-2-one]"
3,1.8,"Cc1c(-c2cc3ccccc3n2CC2CC2)oc2cc(C(=O)N3C[C@H](N)C[C@@H](F)C3)ccc12 [Example 194, ((3R,5R)-3-Amino-5-fluoropiperidin-1-yl)(2-(1-(cyclopropylmethyl)-1H-indol-2-yl)-3-methylbenzofuran-6-yl)methanone]"
4,0.363,"Cc1c(-c2cc3ccc(-c4ccc5c(c4)CNC5=O)cc3n2CC2CC2)oc2cc(C(=O)N3C[C@H](N)C[C@@H](F)C3)ccc12 [Example 195, 5-(2-(6-((3R,5R)-3-Amino-5-fluoropiperidine-1-carbonyl)-3-methylbenzofuran-2-yl)-1-(cyclopropylmethyl)-1H-indol-6-yl)isoindolin-1-one]"
5,0.384,"Cc1c(-c2cc3ccc(-c4ccc(C(N)=O)c(F)c4)cc3n2CC2CC2)oc2cc(C(=O)N3C[C@H](N)C[C@@H](F)C3)ccc12 [Example 196, 4-(2-(6-((3R,5R)-3-Amino-5-fluoropiperidine-1-carbonyl)-3-methylbenzofuran-2-yl)-1-(cyclopropylmethyl)-1H-indol-6-yl)-2-fluorobenzamide]"
6,0.317,"Cc1c(-c2cc3ccc(-c4ccn5c(C)nnc5c4)cc3n2CC2CC2)oc2cc(C(=O)N3C[C@H](N)C[C@@H](F)C3)ccc12 [Example 197, ((3R,5R)-3-Amino-5-fluoropiperidin-1-yl)(2-(1-(cyclopropylmethyl)-6-(3-methyl-[1,2,4]triazolo[4,3-a]pyridin-7-yl)-1H-indol-2-yl)-3-methylbenzofuran-6-yl)methanone]"
7,3.26,"Cc1c(-c2cc3ccc(-c4cccc(O)c4F)cc3n2CC2CC2)oc2cc(C(=O)N3C[C@H](N)C[C@@H](F)C3)ccc12 [Example 198, ((3R,5R)-3-Amino-5-fluoropiperidin-1-yl)(2-(1-(cyclopropylmethyl)-6-(2-fluoro-3-hydroxyphenyl)-1H-indol-2-yl)-3-methylbenzofuran-6-yl)methanone]"
8,3.36,"Cc1c(-c2cc3ccc(-c4ccc(C(N)=O)c(Cl)c4)cc3n2CC2CC2)oc2cc(C(=O)N3C[C@H](N)C[C@@H](F)C3)ccc12 [Example 199, 4-(2-(6-((3R,5R)-3-Amino-5-fluoropiperidine-1-carbonyl)-3-methylbenzofuran-2-yl)-1-(cyclopropylmethyl)-1H-indol-6-yl)-2-chlorobenzamide]"
9,1.97,"Cc1c(-c2cc3ccc(N4CCNCC4)cc3n2CC2CC2)oc2cc(C(=O)N3C[C@H](N)C[C@@H](F)C3)ccc12 [Example 201, ((3R,5R)-3-Amino-5-fluoropiperidin-1-yl)(2-(1-(cyclopropylmethyl)-6-(piperazin-1-yl)-1H-indol-2-yl)-3-methylbenzofuran-6-yl)methanone]"
10,1.06,"Cc1c(-c2cc3ccc(N4CCC(N)CC4)cc3n2CC2CC2)oc2cc(C(=O)N3C[C@H](N)C[C@@H](F)C3)ccc12 [Example 202, ((3R,5R)-3-Amino-5-fluoropiperidin-1-yl)(2-(6-(4-aminopiperidin-1-yl)-1-(cyclopropylmethyl)-1H-indol-2-yl)-3-methylbenzofuran-6-yl)methanone]"
11,0.012,"COc1cc(C(=O)N2CC3CCC2[C@@H]3N)cc2oc(-c3cc4ccc(C(C)(C)O)nc4n3CC3CC3)c(C)c12 (stereo partly drawn) [Example 203, ((7R)-7-Amino-2-azabicyclo[2.2.1]heptan-2-yl)(2-(1-(cyclopropylmethyl)-6-(2-hydroxypropan-2-yl)-1H-pyrrolo[2,3-b]pyridin-2-yl)-4-methoxy-3-methylbenzofuran-6-yl)methanone]"
12,0.039,"Cc1c(-c2cc3ccc(C(C)(C)O)cc3n2CC2CC2)oc2cc(C(=O)N3CC4CCC3[C@@H]4N)ccc12 (stereo partly drawn) [Example 204, ((7R)-7-Amino-2-azabicyclo[2.2.1]heptan-2-yl)(2-(1-(cyclopropylmethyl)-6-(2-hydroxypropan-2-yl)-1H-indol-2-yl)-3-methylbenzofuran-6-yl)methanone]"
13,0.06,"COc1cc(C(=O)N2CC3CCC2[C@@H]3N)cn2nc(-c3cc4ccc(-c5ccccc5N5CCNC5=O)nc4n3CC3CC3)c(C)c12 (stereo partly drawn) [Example 205, 1-[2-(2-{6-[(7R)-7-Amino-2-azabicyclo[2.2.1]heptane-2-carbonyl]-4-methoxy-3-methylpyrazolo[1,5-a]pyridin-2-yl}-1-(cyclopropylmethyl)-1H-pyrrolo[2,3-b]pyridin-6-yl)phenyl]imidazolidin-2-one]"
14,0.07,"COc1cc(C(=O)N2CC3CCC2[C@@H]3N)cn2nc(-c3cc4ccc(-c5ccc(C(N)=O)c(C)c5)nc4n3CC3CC3)c(C)c12 (stereo partly drawn) [Example 206, 4-(2-{6-[(7R)-7-Amino-2-azabicyclo[2.2.1]heptane-2-carbonyl]-4-methoxy-3-methylpyrazolo[1,5-a]pyridin-2-yl}-1-(cyclopropylmethyl)-1H-pyrrolo[2,3-b]pyridin-6-yl)-2-methylbenzamide]"
15,1.08,"COc1cc(C(=O)N2C[C@H](N)C[C@@H](F)C2)cn2nc(-c3cc4ccc(-c5ccccc5CO)cc4n3CC3CC3)c(C)c12 [Example 209, [2-(2-{6-[(3R,5R)-3-Amino-5-fluoropiperidine-1-carbonyl]-4-methoxy-3-methylpyrazolo[1,5-a]pyridin-2-yl}-1-(cyclopropylmethyl)-1H-indol-6-yl)phenyl]methanol]"
16,0.49,"COc1cc(C(=O)N2C[C@H](N)C[C@@H](F)C2)cn2nc(-c3cc4ccc(-c5cccc(CO)c5)cc4n3CC3CC3)c(C)c12 [Example 210, [3-(2-{6-[(3R,5R)-3-Amino-5-fluoropiperidine-1-carbonyl]-4-methoxy-3-methylpyrazolo[1,5-a]pyridin-2-yl}-1-(cyclopropylmethyl)-1H-indol-6-yl)phenyl]methanol]"
17,1.05,"COc1cc(C(=O)N2C[C@H](N)C[C@@H](F)C2)cn2nc(-c3cc4ccc(-c5cccc(CNS(C)(=O)=O)c5)cc4n3CC3CC3)c(C)c12 [Example 211, N-{[3-(2-{6-[(3R,5R)-3-Amino-5-fluoropiperidine-1-carbonyl]-4-methoxy-3-methylpyrazolo[1,5-a]pyridin-2-yl}-1-(cyclopropylmethyl)-1H-indol-6-yl)phenyl]methyl}methanesulfonamide]"
18,1.69,"COc1cccc(-c2ccc3cc(-c4nn5cc(C(=O)N6C[C@H](N)C[C@@H](F)C6)cc(OC)c5c4C)n(CC4CC4)c3c2)c1 [Example 212, (3R,5R)-1-{2-[1-(Cyclopropylmethyl)-6-(3-methoxyphenyl)-1H-indol-2-yl]-4-methoxy-3-methylpyrazolo[1,5-a]pyridine-6-carbonyl}-5-fluoropiperidin-3-amine]"
19,0.68,"COc1cc(C(=O)N2C[C@H](N)C[C@@H](F)C2)cn2nc(-c3cc4ccc(-c5cccc(NS(C)(=O)=O)c5)cc4n3CC3CC3)c(C)c12 [Example 213, N-[3-(2-{6-[(3R,5R)-3-Amino-5-fluoropiperidine-1-carbonyl]-4-methoxy-3-methylpyrazolo[1,5-a]pyridin-2-yl}-1-(cyclopropylmethyl)-1H-indol-6-yl)phenyl]methanesulfonamide]"
20,0.15,"COc1cc(C(=O)N2C[C@H](N)C[C@@H](F)C2)cn2nc(-c3cc4ccc(-c5ccc(NC(C)=O)cc5)cc4n3CC3CC3)c(C)c12 [Example 214, N-[4-(2-{6-[(3R,5R)-3-Amino-5-fluoropiperidine-1-carbonyl]-4-methoxy-3-methylpyrazolo[1,5-a]pyridin-2-yl}-1-(cyclopropylmethyl)-1H-indol-6-yl)phenyl]acetamide]"
21,0.61,"COc1cc(C(=O)N2C[C@H](N)C[C@@H](F)C2)cn2nc(-c3cc4ccc(-c5cccc(CNC(C)=O)c5)cc4n3CC3CC3)c(C)c12 [Example 215, N-{[3-(2-{6-[(3R,5R)-3-Amino-5-fluoropiperidine-1-carbonyl]-4-methoxy-3-methylpyrazolo[1,5-a]pyridin-2-yl}-1-(cyclopropylmethyl)-1H-indol-6-yl)phenyl]methyl}acetamide]"
22,0.27,"COc1cc(C(=O)N2C[C@H](N)C[C@@H](F)C2)cn2nc(-c3cc4ccc(-c5ccc(NS(C)(=O)=O)cc5)cc4n3CC3CC3)c(C)c12 [Example 216, N-[4-(2-{6-[(3R,5R)-3-Amino-5-fluoropiperidine-1-carbonyl]-4-methoxy-3-methylpyrazolo[1,5-a]pyridin-2-yl}-1-(cyclopropylmethyl)-1H-indol-6-yl)phenyl]methanesulfonamide]"
23,0.26,"COc1cc(C(=O)N2C[C@H](N)C[C@@H](F)C2)cn2nc(-c3cc4ccc(-c5ccc(C(=O)N(C)C)cc5)cc4n3CC3CC3)c(C)c12 [Example 217, 4-(2-{6-[(3R,5R)-3-Amino-5-fluoropiperidine-1-carbonyl]-4-methoxy-3-methylpyrazolo[1,5-a]pyridin-2-yl}-1-(cyclopropylmethyl)-1H-indol-6-yl)-N,N-dimethylbenzamide]"
24,0.55,"COc1cc(C(=O)N2C[C@H](N)C[C@@H](F)C2)cn2nc(-c3cc4ccc(-c5ccc6[nH]ncc6c5)cc4n3CC3CC3)c(C)c12 [Example 218, (3R,5R)-1-{2-[1-(Cyclopropylmethyl)-6-(1H-indazol-5-yl)-1H-indol-2-yl]-4-methoxy-3-methylpyrazolo[1,5-a]pyridine-6-carbonyl}-5-fluoropiperidin-3-amine]"
